Data: BindingDB's records for patent US20250034165 (Chia Tai Tianqing Pharmaceutical Group, 2025)

Columns and labels:
[1] = target: Epidermal growth factor receptor [T790M,L858R] (Homo sapiens, UniProt P00533, L858R/T790M); test: Inhibitory Activity for EGFR (L858R/T790M) Kinase
Experimental: (§1) A 50 ng/μL EGFR (L858R/T790M, Carna) stock solution was diluted with a kinase buffer (50 mM HEPES, 10 mM MgCl2, 2 mM DTT, 1 mM EGTA, 0.01% Tween 20), and 6 μL of 1.67× working solution at 0.004175 ng/μL (final concentration: 0.0025 ng/μL) was added to each well. Different compounds dissolved in DMSO were added to wells using a nanoliter pipettor, resulting in the final concentrations of the compounds of 10 nM to 0.0024 nM (4-fold gradient, 7 concentrations in total), and blank control wells (without enzyme) and negative control wells (with enzyme, plus vehicle DMSO) were set, 2 replicate wells for each concentration. After enzyme was reacted with the compound or vehicle for 30 min, 5×ATP at 25 μM (final concentration: 5 μM, Sigma) prepared with a kinase buffer was mixed with 5× substrate at 0.5 μM (final concentration: 0.1 μM, ULight-poly GT, PerkinElmer) at a ratio of 1:1 (v:v), and the mixture was added to each well at 4 μL/well. After being sealed with a film, the plate was incubated at room temperature for 2 h, and then 5 μL of 4×EDTA at 40 mM (final concentration: 10 mM) was added to each well. After the plate was incubated for 5 min at room temperature, 5 μL of 4× detection reagent at 8 nM (final concentration: 2 nM, Eu-anti-phospho-tyrosine antibody, PerkinElmer) was added to each well. After being incubated at room temperature for 1 h, the plate was read using a PerkinElmer Envision multi-mode microplate reader (excitation: 320 nm, emission: 665 nm), and IC50 was calculated by four-parameter fitting.

[2] = target: Epidermal growth factor receptor [T790M,C797S,L858R] (UniProt P00533, C797S/L858R/T790M); test: Inhibitory Activity for EGFR (L858R/T790M/C797S) Kinase
Sequence of Epidermal growth factor receptor [T790M,C797S,L858R] (P00533 25-1210 T790M/C797S/L858R limits assumed): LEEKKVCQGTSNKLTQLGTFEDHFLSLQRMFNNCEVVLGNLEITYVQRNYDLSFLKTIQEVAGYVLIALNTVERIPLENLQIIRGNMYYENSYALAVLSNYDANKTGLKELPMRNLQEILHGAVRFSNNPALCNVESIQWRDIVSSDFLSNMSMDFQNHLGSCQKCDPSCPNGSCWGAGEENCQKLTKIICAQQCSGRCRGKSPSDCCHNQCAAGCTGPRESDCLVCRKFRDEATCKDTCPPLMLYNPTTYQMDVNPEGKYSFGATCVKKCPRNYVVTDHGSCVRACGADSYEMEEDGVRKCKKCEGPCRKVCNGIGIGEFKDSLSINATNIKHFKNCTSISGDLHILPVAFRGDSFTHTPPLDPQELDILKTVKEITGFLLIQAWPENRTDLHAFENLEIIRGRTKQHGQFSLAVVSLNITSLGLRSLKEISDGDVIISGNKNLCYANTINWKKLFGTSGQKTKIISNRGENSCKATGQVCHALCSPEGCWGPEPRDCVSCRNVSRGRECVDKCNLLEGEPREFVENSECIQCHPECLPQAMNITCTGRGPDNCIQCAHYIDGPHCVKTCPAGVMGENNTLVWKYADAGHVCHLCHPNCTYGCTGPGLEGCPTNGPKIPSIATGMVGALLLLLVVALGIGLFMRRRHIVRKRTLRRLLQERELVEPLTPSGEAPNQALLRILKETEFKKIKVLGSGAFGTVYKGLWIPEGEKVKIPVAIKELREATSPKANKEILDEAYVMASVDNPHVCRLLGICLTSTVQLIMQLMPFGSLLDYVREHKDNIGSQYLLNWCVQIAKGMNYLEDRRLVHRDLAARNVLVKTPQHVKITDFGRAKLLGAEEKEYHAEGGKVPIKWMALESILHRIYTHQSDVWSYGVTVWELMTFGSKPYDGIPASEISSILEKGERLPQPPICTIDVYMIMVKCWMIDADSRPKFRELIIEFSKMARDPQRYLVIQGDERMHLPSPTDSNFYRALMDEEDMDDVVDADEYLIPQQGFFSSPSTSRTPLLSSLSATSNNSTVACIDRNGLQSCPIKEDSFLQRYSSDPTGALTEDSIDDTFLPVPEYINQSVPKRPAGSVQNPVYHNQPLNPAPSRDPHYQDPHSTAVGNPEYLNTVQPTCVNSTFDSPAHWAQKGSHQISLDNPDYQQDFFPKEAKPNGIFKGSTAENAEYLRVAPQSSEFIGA
Experimental: as §1, with “(L858R/T790M/C797S, BPS)” for “(L858R/T790M, Carna)”, “0.00167” for “0.004175”, “0.001” for “0.0025”

[3] = target: Epidermal growth factor receptor (Homo sapiens, UniProt P00533); test: Inhibitory Activity for EGFR (WT) Kinase
Sequence of Epidermal growth factor receptor (P00533 whole entry): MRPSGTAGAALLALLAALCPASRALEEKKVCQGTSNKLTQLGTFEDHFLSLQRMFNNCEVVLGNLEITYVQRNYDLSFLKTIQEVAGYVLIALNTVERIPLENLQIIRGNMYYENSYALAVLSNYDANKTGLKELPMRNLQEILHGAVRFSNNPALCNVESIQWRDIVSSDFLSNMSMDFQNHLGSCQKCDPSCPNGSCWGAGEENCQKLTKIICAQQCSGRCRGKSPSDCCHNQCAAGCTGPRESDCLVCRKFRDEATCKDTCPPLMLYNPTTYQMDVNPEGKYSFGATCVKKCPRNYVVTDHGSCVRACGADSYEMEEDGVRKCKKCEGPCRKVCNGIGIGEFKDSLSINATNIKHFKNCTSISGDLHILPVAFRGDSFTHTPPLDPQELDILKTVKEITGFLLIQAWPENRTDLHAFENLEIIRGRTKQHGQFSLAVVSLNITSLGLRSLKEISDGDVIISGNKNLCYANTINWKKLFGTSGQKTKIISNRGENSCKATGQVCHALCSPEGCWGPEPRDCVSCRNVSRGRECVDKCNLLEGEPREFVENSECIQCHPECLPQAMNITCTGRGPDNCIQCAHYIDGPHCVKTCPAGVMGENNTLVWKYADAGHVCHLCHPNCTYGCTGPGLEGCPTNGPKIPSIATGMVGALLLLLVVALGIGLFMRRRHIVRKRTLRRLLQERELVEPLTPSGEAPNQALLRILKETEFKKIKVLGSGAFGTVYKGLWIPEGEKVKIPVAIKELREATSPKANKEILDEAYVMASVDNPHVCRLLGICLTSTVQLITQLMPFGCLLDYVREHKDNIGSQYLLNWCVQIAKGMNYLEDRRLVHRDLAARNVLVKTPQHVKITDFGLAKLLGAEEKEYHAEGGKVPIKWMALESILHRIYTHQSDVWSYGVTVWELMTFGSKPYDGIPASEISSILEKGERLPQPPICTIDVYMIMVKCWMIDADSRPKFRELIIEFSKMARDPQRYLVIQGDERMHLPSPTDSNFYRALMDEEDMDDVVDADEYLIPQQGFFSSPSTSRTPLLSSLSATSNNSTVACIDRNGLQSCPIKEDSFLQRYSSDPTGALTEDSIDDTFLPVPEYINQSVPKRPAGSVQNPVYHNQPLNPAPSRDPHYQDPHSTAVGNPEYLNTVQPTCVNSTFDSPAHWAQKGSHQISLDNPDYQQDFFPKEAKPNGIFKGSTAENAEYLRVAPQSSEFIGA
Experimental: A 50 ng/μL EGFR (WT, Carna) stock solution was diluted with a kinase buffer (50 mM HEPES, 10 mM MgCl2, 2 mM DTT, 1 mM EGTA, 0.01% Tween 20), and 6 μL of 1.67× working solution at 0.005 ng/μL (final concentration: 0.003 ng/μL) was added to each well. Different compounds dissolved in DMSO were added to the wells using a nanoliter pipettor, resulting in the final concentrations of the compounds of 100 nM to 0.0244 nM (4-fold gradient for 7 concentrations in total), and blank control wells (without enzyme) and negative control wells (with enzyme, plus vehicle DMSO) were set, 2 replicate wells for each concentration. After enzyme was reacted with the compound or vehicle for 30 min, 5×ATP at 25 μM (final concentration: 5 μM, Sigma) prepared with a kinase buffer was mixed with 5× substrate at 0.5 μM (final concentration: 0.1 μM, ULight-poly GT, PerkinElmer) at a ratio of 1:1 (v:v), and the mixture was added to each well at 4 μL/well. After being sealed with a film, the plate was incubated at room temperature for 2 h, and then 5 μL of 4×EDTA at 40 mM (final concentration: 10 mM) was added to each well. After the plate was incubated for 5 min at room temperature, 5 μL of 4× detection reagent at 8 nM (final concentration: 2 nM, Eu-anti-phospho-tyrosine antibody, PerkinElmer) was added to each well.

[4] = target: Epidermal growth factor receptor (EGFR)(L858R)(T790M) (Homo sapiens, UniProt P00533, L858R/T790M); test: Inhibitory Activity for EGFR (L858R/T790M) Kinase
Sequence of Epidermal growth factor receptor (EGFR)(L858R)(T790M) (P00533 25-1210 T790M/L858R limits assumed): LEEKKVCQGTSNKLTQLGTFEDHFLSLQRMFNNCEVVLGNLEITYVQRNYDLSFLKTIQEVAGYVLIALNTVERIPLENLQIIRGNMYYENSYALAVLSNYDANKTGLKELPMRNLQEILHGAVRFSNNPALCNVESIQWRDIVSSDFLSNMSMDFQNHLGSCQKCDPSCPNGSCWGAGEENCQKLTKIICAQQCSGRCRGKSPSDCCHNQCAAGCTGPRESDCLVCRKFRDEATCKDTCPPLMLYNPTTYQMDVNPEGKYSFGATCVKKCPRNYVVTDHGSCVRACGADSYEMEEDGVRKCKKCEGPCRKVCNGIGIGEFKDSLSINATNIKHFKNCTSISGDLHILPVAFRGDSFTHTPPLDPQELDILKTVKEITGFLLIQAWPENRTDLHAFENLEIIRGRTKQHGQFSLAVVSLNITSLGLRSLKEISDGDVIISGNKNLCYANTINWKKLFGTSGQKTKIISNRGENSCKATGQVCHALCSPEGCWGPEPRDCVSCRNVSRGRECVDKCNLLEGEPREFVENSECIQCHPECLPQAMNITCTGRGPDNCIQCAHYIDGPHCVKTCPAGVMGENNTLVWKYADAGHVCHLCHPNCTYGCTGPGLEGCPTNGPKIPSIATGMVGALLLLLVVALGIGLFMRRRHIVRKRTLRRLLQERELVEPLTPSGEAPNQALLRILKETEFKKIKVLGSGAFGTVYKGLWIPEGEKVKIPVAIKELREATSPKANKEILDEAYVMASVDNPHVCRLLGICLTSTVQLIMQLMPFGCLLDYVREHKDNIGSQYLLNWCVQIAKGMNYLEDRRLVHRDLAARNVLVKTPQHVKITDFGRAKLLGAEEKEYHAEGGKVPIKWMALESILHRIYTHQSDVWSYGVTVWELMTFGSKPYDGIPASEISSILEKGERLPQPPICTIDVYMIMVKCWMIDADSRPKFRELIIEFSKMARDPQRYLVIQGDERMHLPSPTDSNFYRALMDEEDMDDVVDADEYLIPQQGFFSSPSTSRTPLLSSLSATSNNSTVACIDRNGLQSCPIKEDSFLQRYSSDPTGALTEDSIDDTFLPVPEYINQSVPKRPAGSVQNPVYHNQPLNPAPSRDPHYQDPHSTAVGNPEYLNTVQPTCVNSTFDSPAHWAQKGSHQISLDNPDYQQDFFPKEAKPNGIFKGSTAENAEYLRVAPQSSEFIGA
Experimental: as §1

Sequence of Epidermal growth factor receptor [T790M,L858R] (P00533 25-1210 T790M/L858R limits assumed): as above

CNCCCNc1ccc2c(c1)N/C1=N\C(=O)c3cc(C)nc(c3)-c3cnn(C)c3OCCC[C@@H](C3CC3)CN12 [US20250034165, Example 49]
IC50 [1]: 48 pM | IC50 [2]: 51 pM | IC50 [3]: 2200 pM

[2H]C([2H])([2H])N(C[C@H](C)Nc1ccc2c(c1)N1C[C@H](C3CC3)CCCOc3c(cnn3C)-c3cc(cc(C)n3)C(=O)/N=C\1N2)C([2H])([2H])[2H] [US20250034165, Example 123]
IC50 [1]: 160 pM

CCN1CCC(Nc2ccc3c(c2)N/C2=N\C(=O)c4cc(C)nc(c4)-c4cnn(C)c4OCCC[C@@H](C4CC4)CN23)CC1 [US20250034165, Example 48]
IC50 [1]: 23 pM | IC50 [3]: 510 pM

CNCCCCNc1ccc2c(c1)N/C1=N/C(=O)c3cc(C)nc(c3)-c3cnn(C)c3OCCC[C@@H](C3CC3)CN12 [US20250034165, Example 52]
IC50 [1]: 26 pM | IC50 [2]: 35 pM | IC50 [3]: 570 pM

Cc1cc2cc(n1)-c1cnn(C)c1OCCC[C@@H](C1CC1)CN1/C(=N/C2=O)Nc2cc(N(C)C3COC3)ccc21 [US20250034165, Example 41]
IC50 [4]: 18 pM | IC50 [2]: 21 pM | IC50 [3]: 1100 pM

Cc1cc2cc(n1)-c1cnn(C)c1OCCC[C@@H](C1CC1)CN1/C(=N/C2=O)Nc2ccc(NC3CCN(C(C)C)CC3)cc21 [US20250034165, Example 54]
IC50 [4]: 17 pM | IC50 [2]: 25 pM | IC50 [3]: 390 pM

Cc1cc2cc(n1)-c1cnn(C)c1OCCC[C@@H](C1CC1)CN1/C(=N/C2=O)Nc2cc(NC3(C)COC3)ccc21 [US20250034165, Example 29]
IC50 [4]: 19 pM | IC50 [2]: 21 pM | IC50 [3]: 1400 pM

Cc1cc2cc(n1)-c1cnn(C)c1OCCC[C@@H](C1CC1)CN1/C(=N/C2=O)Nc2cc(NCCCN3CCCC3)ccc21 [US20250034165, Example 70]
IC50 [4]: 15 pM | IC50 [2]: 29 pM | IC50 [3]: 990 pM

Cc1cc2cc(n1)-c1cnn(C)c1OCCC[C@@H](C1CC1)CN1/C(=N/C2=O)Nc2cc(NCCCN(C)C)ccc21 [US20250034165, Example 44]
IC50 [4]: 10 pM | IC50 [2]: 7 pM | IC50 [3]: 360 pM

Cc1cc2cc(n1)-c1cnn(C)c1OCCC[C@@H](C1CC1)CN1/C(=N/C2=O)Nc2cc(NC3CCN(C)CC3)ccc21 [US20250034165, Example 10]
IC50 [4]: 20 pM | IC50 [2]: 19 pM | IC50 [3]: 120 pM

[2H]C([2H])([2H])N(C[C@@H](C)Nc1ccc2c(c1)N/C1=N/C(=O)c3cc(C)nc(c3)-c3cnn(C)c3OCCC[C@@H](C3CC3)CN12)C([2H])([2H])[2H] [US20250034165, Example 146]
IC50 [1]: 520 pM | IC50 [2]: 750 pM

Cc1cc2cc(n1)-c1cnn(C3CC3)c1OCCC[C@@H](C)CN1/C(=N/C2=O)Nc2ccc(NCCN(C)C)cc21 [US20250034165, Example 17]
IC50 [4]: 11 pM | IC50 [2]: 8 pM | IC50 [3]: 700 pM

Cc1cc2cc(n1)-c1cnn(C)c1OCCC[C@@H](C1CC1)CN1/C(=N/C2=O)Nc2ccc(NCCCN3CCCCC3)cc21 [US20250034165, Example 80]
IC50 [4]: 31 pM | IC50 [2]: 19 pM | IC50 [3]: 560 pM

Cc1cc2cc(n1)-c1cnn(C)c1OCCC[C@@H](C1CC1)CN1/C(=N/C2=O)Nc2cc(NCC3COC3)ccc21 [US20250034165, Example 36]
IC50 [4]: 33 pM | IC50 [2]: 35 pM | IC50 [3]: 1500 pM

Cc1cc2cc(n1)-c1cnn(C)c1OCCC[C@@H](C1CC1)CN1/C(=N/C2=O)Nc2cc(NC3COC3(C)C)ccc21 (stereo partly specified) [US20250034165, Example 30]
IC50 [4]: 130 pM | IC50 [2]: 120 pM | IC50 [3]: 2800 pM

Cc1cc2cc(n1)-c1cnn(C)c1OCCC[C@@H](C1CC1)CN1/C(=N/C2=O)Nc2cc(NCC3(C)COC3)ccc21 [US20250034165, Example 40]
IC50 [4]: 27 pM | IC50 [2]: 30 pM | IC50 [3]: 1600 pM

Cc1cc2cc(n1)-c1cnn(C)c1OCCC[C@@H](C1CC1)CN1/C(=N/C2=O)Nc2cc(NC(C)C3COC3)ccc21 (stereo partly specified) [US20250034165, Example 37]
IC50 [4]: 27 pM | IC50 [2]: 37 pM | IC50 [3]: 1400 pM

Cc1cc2cc(n1)-c1cnn(C)c1OCCC[C@@H](C1CC1)CN1/C(=N/C2=O)Nc2cc(NC3C(C)(C)OC3(C)C)ccc21 [US20250034165, Example 31]
IC50 [4]: 38 pM | IC50 [2]: 42 pM | IC50 [3]: 2200 pM

Cc1cc2cc(n1)-c1cnn(C3CC3)c1OCCC[C@@H](C)CN1/C(=N/C2=O)Nc2cc(N[C@@H]3CCOC3)ccc21 [US20250034165, Example 13]
IC50 [4]: 88 pM | IC50 [2]: 95 pM | IC50 [3]: 2000 pM

[2H]C([2H])([2H])N(C[C@H](C)Nc1ccc2c(c1)N/C1=N/C(=O)c3cc(C)nc(c3)-c3cnn(C)c3OCCC[C@@H](C3CC3)CN12)C([2H])([2H])[2H] [US20250034165, Example 124]
IC50 [1]: 220 pM | IC50 [2]: 160 pM

Cc1cc2cc(n1)-c1cnn(C)c1OCCC[C@@H](C1CC1)CN1/C(=N/C2=O)Nc2cc(NCCN3CCCC3)ccc21 [US20250034165, Example 72]
IC50 [4]: 38 pM | IC50 [2]: 21 pM | IC50 [3]: 930 pM

Cc1cc2cc(n1)-c1cnn(C)c1OCCC[C@@H](C1CC1)CN1/C(=N/C2=O)Nc2cc(NC3CCC3)ccc21 [US20250034165, Example 79]
IC50 [4]: 7 pM | IC50 [2]: 123 pM | IC50 [3]: 6200 pM
